The source made the active and inactive calls. How the calls were made is not given here.

This experiment concerns Jurkat NF-kB reporter, luminescence. Put plainly: NF-kB reporter inhibition in Jurkat cells, dose response, selectivity assay for B-cell receptor NF-kB inhibitor project, cell-based, luminescence (AID 489006).
Broadly, the IC50 is the concentration that inhibits the measured activity by half. Take `CCN(CC(=O)Nc1c(F)cccc1F)C(=O)C1(c2ccccc2)CC1`: the IC50 is > 80 µM (inactive).

In the case of `COc1ccc(OC)c(C2CC(=O)Nc3cc(OC)c(OC)c(OC)c32)c1` (stereo unspecified), the IC50 was > 80 µM (inactive).

In the case of `O=C(O)CCn1c(O)c(C=C2N=c3ccccc3=N2)sc1=S`, the IC50 is 1.46 µM.

Consider `COCCNC(=O)CSCc1nc(-c2ccc(SC)cc2)oc1C`, for which the IC50 was > 80 µM (inactive).

On to `COc1cccc(Cn2nnc(C(=O)Nc3cc(Cl)ccc3OC)c2N)c1`, for which the IC50 was > 80 µM (inactive).

As for `C=CCOc1ccc(/C=C2\SC(=S)N(CCC(=O)O)C2=O)cc1`, the IC50 was less than 0.16 µM.

For `CCOc1ccc(-c2nnc(SCC(=O)NC3CC3)o2)cc1`, the IC50 was 54.2 µM (inactive).

As to `COc1ccc(/C=C2/SC(=S)N(CCCC(=O)Nc3ccc(O)cc3)C2=O)cc1`, the IC50 is > 80 µM (inactive).

As for `Cc1cc(OC(=O)c2ccccc2Cl)cc(=O)n1C`, the IC50 was > 80 µM (inactive).

Regarding `Cc1ccc(/C=C2\SC(=S)N(CCCC(=O)Nc3ccc(O)cc3)C2=O)cc1`, the IC50 is 18.9 µM.

Consider `Cc1c(NC(=O)/C=C/c2cn(-c3ccccc3)nc2-c2ccccc2)c(=O)n(-c2ccccc2)n1C`, for which the IC50 was > 80 µM (inactive).

For `COC(=O)C1=C(c2ccc(-c3ccccc3)c(F)c2)C[C@@H]2CC[C@H]1N2C(=O)N1CCCC1`, the IC50 was 35.8 µM (inactive).

`CC1=CC(C)(C)Nc2ccc(OC(=O)C(Cc3ccccc3)N3C(=O)c4ccccc4C3=O)cc21` (stereo unspecified): the half-maximal inhibitory concentration (IC50) is 7.32 µM.

In the case of `O=C(NCCCN1CCOCC1)c1cc(-c2ccc(Br)cc2)on1`, the IC50 is 59.5 µM (inactive).

For the compound `COc1ccc(-n2c(-c3ccc(Br)cc3)c[n+]3c2CCc2ccccc2-3)cc1`, the IC50 was 31.8 µM (inactive).

Consider `Cc1cc(N(C)C)ccc1N=Nc1ccc(N)cc1`, for which the IC50 is > 80 µM (inactive).

Turning to `C=CCOc1ccccc1CN(C(=O)CCl)c1ccc2c(c1)OCO2`, the IC50 is 1.7 µM.

With `CC1=CC(C)(C)Nc2ccc(OC(=O)CN3C(=O)c4ccccc4C3=O)cc21`, the IC50 was 1.28 µM.

With `Cc1cc(NC(=O)CCCN2C(=O)/C(=C/c3ccccc3Cl)SC2=S)no1`, the IC50 was 20.4 µM (inactive).

For the compound `Cc1ccc(S(=O)(=O)CC2CSc3nc4ccccc4n32)cc1` (stereo unspecified), the IC50 is > 80 µM (inactive).

As to `CCN(CC)c1ccc(/C=C2/C(=O)ON=C2C)cc1`, the IC50 is 19.3 µM.

For the compound `CC1CN(S(=O)(=O)c2ccc(C(=O)Nc3nc(-c4cc5ccccc5o4)cs3)cc2)CC(C)O1` (stereo unspecified), the IC50 was 49.9 µM (inactive).

With `CC(C)(C)c1ccc(-c2nnc(SCC(=O)NC3CC3)o2)cc1`, the IC50 was > 80 µM (inactive).

Consider `Cc1nn(C(C)(C)C)c(OC(=O)c2ccc(Br)o2)c1Sc1ccccc1`, for which the IC50 was > 80 µM (inactive).

As for `O=S(=O)(c1cnc(Cl)c(Cl)c1)N1CCCc2ccccc21`, the IC50 is 18.6 µM.

In the case of `CCOC(=O)c1cc2c(=O)n3ccccc3nc2n(CC(C)C)c1=NC(=O)c1c(-c2c(F)cccc2Cl)noc1C`, the IC50 is > 80 µM (inactive).

For the compound `COc1ccc(-c2noc(N3CCC(C(=O)Nc4ccc(F)cc4F)CC3)n2)cc1`, the IC50 is > 80 µM (inactive).

With `Cc1[nH]c2ccccc2c1/C=N/Nc1nc(Nc2ccc(F)cc2)nc(N2CCOCC2)n1`, the IC50 was 20.9 µM (inactive).

With `O=C(CCCN1C(=O)/C(=C/c2ccccc2Cl)SC1=S)NNC(=O)c1ccncc1`, the IC50 is 7.79 µM.

Consider `COc1ccc(C(=O)Nc2ccccc2C(=O)NCc2ccco2)cc1OC`, for which the IC50 is 61.7 µM (inactive).

For `COc1ccc(N(CC(=O)N2CCN(c3ccc(Cl)cc3)CC2)S(=O)(=O)c2c(C)n[nH]c2C)cc1`, the IC50 was > 80 µM (inactive).

Take `Cc1ccc(-c2nn3c(C)nnc3c3ccccc23)cc1S(=O)(=O)NCCN1CCOCC1`: the IC50 is > 80 µM (inactive).

Take `CCCS(=O)(=O)Nc1cccc(-c2ccc3nnc(C)n3n2)c1`: the IC50 was > 80 µM (inactive).

Turning to `COc1ccc(-c2ccc(F)cc2)cc1[C@H]1[C@H]2C=CC[C@@H](C)[C@@H]2C(=O)N1Cc1ccccc1`, the IC50 was > 80 µM (inactive).

For `Cc1nn(C)c(C)c1CN(C)S(=O)(=O)c1ccc2ccccc2c1`, the IC50 is > 80 µM (inactive).

For the compound `CCn1c(=O)cc(SCC(=O)N2CCC3(CC2)OCCO3)c2ccccc21`, the IC50 was > 80 µM (inactive).

On to `COc1ccc(-c2ccoc2)cc1[C@H]1[C@H]2C=CC[C@@H](C)[C@@H]2C(=O)N1Cc1ccccc1`, for which the IC50 is 50.4 µM (inactive).

On to `CCOc1cc(/C=N\Nc2nc(Nc3ccccc3)nc(N3CCOCC3)n2)ccc1OC(=O)c1ccco1`, for which the IC50 was > 80 µM (inactive).

As for `CSc1ccc(-c2nc(CSCC(=O)NC3CC3)c(C)o2)cc1`, the IC50 was > 80 µM (inactive).

Regarding `CC1CCN(c2c(NCc3ccc(C(=O)N4c5ccccc5CC4C)cc3)c(=O)c2=O)CC1` (stereo unspecified), the IC50 was > 80 µM (inactive).

For the compound `Cc1nn(-c2ccc(N3CCCCC3)nn2)c(C)c1CCC(=O)Nc1ccccc1F`, the IC50 was 71.1 µM (inactive).

For `Cc1ccc(Sc2cc(NCCCO)c([N+](=O)[O-])c3nonc23)cc1`, the IC50 is > 80 µM (inactive).

For `CCn1c(=O)c2cc(C(=O)NC(C)C)sc2c2ccccc21`, the IC50 was > 80 µM (inactive).

For the compound `COc1ccc(OC)c(S(=O)(=O)Nc2ccc(-c3ccc4nnc(C)n4n3)cc2)c1`, the IC50 was 11.5 µM.

For the compound `CCn1c(=O)cc(SCC(=O)N2CCN(C(=O)c3ccco3)CC2)c2ccccc21`, the IC50 was > 80 µM (inactive).

As to `COc1cccc(N2CCN(c3ncnc4c3[nH]c3ccc(F)cc34)CC2C)c1` (stereo unspecified), the IC50 is 1.31 µM.

On to `COc1ccc(/C=N/OCC(=O)NC(c2ccccc2)c2ccccc2)cc1OC`, for which the IC50 was > 80 µM (inactive).

For `COc1ccc(OCc2cccc(C(=O)Nn3cc([N+](=O)[O-])cn3)c2)cc1`, the 50% inhibitory concentration (IC50) was 1.85 µM.

`CCCCCC/C=C/c1ccc(OC)c([C@H]2[C@H]3C=CC[C@@H](C)[C@@H]3C(=O)N2Cc2ccccc2)c1`: the IC50 is > 80 µM (inactive).

Turning to `CC1CCN(C(=O)CCCOc2cc(=O)n(C)c3ccccc23)CC1`, the IC50 is > 80 µM (inactive).

For the compound `COc1ccc(/C=C2\SC(=S)N(CCCC(=O)NNC(=O)c3ccccc3O)C2=O)cc1`, the IC50 was 0.58 µM.

On to `CC(C)C[C@@H](N)c1nnc(SCC(=O)c2ccc(Cl)cc2)o1`, for which the IC50 was 11.3 µM.

`Cc1ccc(-c2nn3c(C)nnc3c3ccccc23)cc1S(=O)(=O)NCc1ccco1`: the IC50 was 46.7 µM (inactive).

With `COc1ccc(/C=C2\SC(=O)N(CCCC(=O)Nc3ccc(C(=O)O)cc3)C2=O)cc1OC`, the IC50 is 29.4 µM (inactive).

Take `COC(=O)c1c(-c2ccc(N(C)C)cc2)sc2ccc(OC)cc12`: the IC50 was > 80 µM (inactive).

Take `CCC(=O)N(C1=C(NC)C(=O)c2ccccc2C1=O)C(C)C`: the IC50 is 45.8 µM (inactive).

As to `N=c1c2c(n(Cc3cccc(Cl)c3)c3c1CCC3)CCCC2`, the IC50 was 27.6 µM (inactive).

Consider `CC(C)C(c1nnnn1Cc1ccccc1)N(Cc1ccco1)Cc1cccs1` (stereo unspecified), for which the IC50 is 73.6 µM (inactive).

With `CCN(CC(=O)Nc1c(F)cccc1F)C(=O)c1cc(S(=O)(=O)N(CC)CC)ccc1N1CCCCC1`, the IC50 is > 80 µM (inactive).

Turning to `CC1Cc2ccccc2N1S(=O)(=O)c1cnc(Cl)c(Br)c1` (stereo unspecified), the IC50 is 27.2 µM (inactive).

For the compound `O=[N+]([O-])c1ccc(Sc2cc[n+]([O-])c3ccccc23)c([N+](=O)[O-])c1`, the IC50 is 6.03 µM.

Take `C=CCn1c(O)c(C(C)=NC(C)c2ccccc2)c(=O)[nH]c1=O` (stereo unspecified): the IC50 was > 80 µM (inactive).

On to `CC1=CC(C)(C)Nc2ccc(OC(=O)C(C)N3C(=O)c4ccccc4C3=O)cc21` (stereo unspecified), for which the IC50 is 1.19 µM.

`Cc1ccc(-n2c(-c3ccccc3)c[n+]3c2CCc2ccccc2-3)c(C)c1`: the 50% inhibitory concentration (IC50) was 12.5 µM.

Take `O=C(Cc1cccc2ccccc12)Nc1ccc(-c2cc3ccccc3oc2=O)cc1`: the IC50 was 14.8 µM.

Take `CCN1C(=O)c2cccc3c(NC(=O)c4cccc(N5C(=O)CCC5=O)c4)ccc1c23`: the IC50 was > 80 µM (inactive).

`COc1ccc(NC(=O)c2nnn(Cc3cccc(F)c3)c2N)c(OC)c1`: the IC50 was > 80 µM (inactive).

In the case of `COc1ccc(/C=C2\SC(=S)N(CCC(=O)Nc3ccc(C(=O)O)cc3)C2=O)cc1OC`, the IC50 is > 80 µM (inactive).

As to `Cn1nnnc1Sc1ncnc2scc(Br)c12`, the 50% inhibitory concentration (IC50) was 1.13 µM.

Turning to `COc1cc(-c2nc3ccc(N4CCN(C)CC4)cc3[nH]2)cc(OC)c1OC`, the IC50 is > 80 µM (inactive).

In the case of `Cc1ccc(S(=O)(=O)Nc2ccc3c(c2)n(C)c(=O)n3C)cc1`, the IC50 is 73 µM (inactive).

Take `O=C(NNC(=O)c1ccccc1O)c1ccc(Cl)c(S(=O)(=O)N2CCc3ccccc32)c1`: the IC50 was > 80 µM (inactive).

On to `Cc1[nH]c2ccccc2c1C(=O)CN1C(=O)NC2(CC(C)CC(C)(C)C2)C1=O` (stereo unspecified), for which the IC50 was 52.7 µM (inactive).

For `COc1cc2c3c(c1)c(N=NC(N)=S)c(O)n3C(C)(C)C=C2C`, the IC50 was > 80 µM (inactive).

On to `O=C(CCCN1C(=O)S/C(=C\c2ccccc2)C1=O)NNC(=O)c1ccccc1O`, for which the IC50 was 1.06 µM.

As for `CCC(C)NC(=O)c1c(N)n(/N=C/c2ccccn2)c2nc3ccccc3nc12` (stereo unspecified), the IC50 was 22.7 µM (inactive).

As to `Cn1c(=O)cc(OCCCC(=O)NC2CCCC2)c2ccccc21`, the IC50 is 39.5 µM (inactive).

As to `COc1ccc(-c2nc(CSCC(=O)NCc3ccco3)c(C)o2)cc1`, the IC50 is 66.8 µM (inactive).

On to `CSC1CCCCC1(O)CSc1nc2c(cc1C#N)CCCC2` (stereo unspecified), for which the IC50 is > 80 µM (inactive).

Turning to `CCOC(=O)C(=CNc1cc(C)ccc1C)C(=O)OCC`, the IC50 was > 80 µM (inactive).

`COc1ccc(-c2csc3nc(-c4cccnc4)nc(N4CCC(C(N)=O)CC4)c23)cc1OC`: the half-maximal inhibitory concentration (IC50) is 12.1 µM.

Regarding `COc1ccc(C(=O)Nc2nnc(Cc3cccs3)s2)cc1OC`, the IC50 was > 80 µM (inactive).

Turning to `CC(C)(C)c1ccc(-c2noc(CCC(N)=O)n2)cc1`, the IC50 is less than 0.16 µM.

Take `COc1ccccc1/C=C1\SC(=S)N(CCC(=O)Nc2nnc(C)s2)C1=O`: the IC50 is > 80 µM (inactive).

For `O=C(O)COc1ccc(-c2nccc(-c3ccccn3)n2)cc1`, the IC50 is 0.22 µM.

Turning to `COc1ccc(C=C(C(C)=O)C(C)=O)cc1OC`, the IC50 was 6.23 µM.

(Values after PubChem BioAssay AID489006 (Sanford-Burnham Center for Chemical Genomics, 2010).)
